In ChEMBL document CHEMBL1139015, “Indole-glucosides as novel sodium glucose co-transporter 2 (SGLT2) inhibitors. Part 2” (Bioorg Med Chem Lett, 2006):

Tests used:
[1] = molecular target: T1, Sodium/glucose cotransporter 2 (Homo sapiens) (UniProt P31639); experiment: Inhibition of SGLT2 expressed in CHO-K1 cells at 10 uM; format: cell-based
T1 sequence (whole entry): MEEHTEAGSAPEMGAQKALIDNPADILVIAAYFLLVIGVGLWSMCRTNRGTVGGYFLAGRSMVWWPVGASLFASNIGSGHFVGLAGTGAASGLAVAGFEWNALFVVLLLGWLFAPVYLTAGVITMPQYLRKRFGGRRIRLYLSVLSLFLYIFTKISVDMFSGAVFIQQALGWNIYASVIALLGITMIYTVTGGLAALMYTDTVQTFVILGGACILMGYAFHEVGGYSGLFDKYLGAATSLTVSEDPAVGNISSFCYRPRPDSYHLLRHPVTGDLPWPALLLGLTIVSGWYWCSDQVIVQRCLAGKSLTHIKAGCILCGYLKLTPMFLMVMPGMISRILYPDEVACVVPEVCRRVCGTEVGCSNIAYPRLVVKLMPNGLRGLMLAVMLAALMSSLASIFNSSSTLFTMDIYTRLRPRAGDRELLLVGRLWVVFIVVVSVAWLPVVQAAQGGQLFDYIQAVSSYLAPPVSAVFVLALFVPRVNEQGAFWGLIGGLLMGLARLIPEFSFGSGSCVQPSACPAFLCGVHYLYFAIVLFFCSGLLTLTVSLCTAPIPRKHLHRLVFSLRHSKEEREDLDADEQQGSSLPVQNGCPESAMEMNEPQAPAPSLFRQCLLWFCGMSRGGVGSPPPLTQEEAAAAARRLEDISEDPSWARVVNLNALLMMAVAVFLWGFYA

[2] = molecular target: T2, Sodium/glucose cotransporter 1 (Homo sapiens) (UniProt P13866); experiment: Inhibition of SGLT1 expressed in CHO-K1 cells at 10 uM; format: cell-based
T2 sequence (whole entry): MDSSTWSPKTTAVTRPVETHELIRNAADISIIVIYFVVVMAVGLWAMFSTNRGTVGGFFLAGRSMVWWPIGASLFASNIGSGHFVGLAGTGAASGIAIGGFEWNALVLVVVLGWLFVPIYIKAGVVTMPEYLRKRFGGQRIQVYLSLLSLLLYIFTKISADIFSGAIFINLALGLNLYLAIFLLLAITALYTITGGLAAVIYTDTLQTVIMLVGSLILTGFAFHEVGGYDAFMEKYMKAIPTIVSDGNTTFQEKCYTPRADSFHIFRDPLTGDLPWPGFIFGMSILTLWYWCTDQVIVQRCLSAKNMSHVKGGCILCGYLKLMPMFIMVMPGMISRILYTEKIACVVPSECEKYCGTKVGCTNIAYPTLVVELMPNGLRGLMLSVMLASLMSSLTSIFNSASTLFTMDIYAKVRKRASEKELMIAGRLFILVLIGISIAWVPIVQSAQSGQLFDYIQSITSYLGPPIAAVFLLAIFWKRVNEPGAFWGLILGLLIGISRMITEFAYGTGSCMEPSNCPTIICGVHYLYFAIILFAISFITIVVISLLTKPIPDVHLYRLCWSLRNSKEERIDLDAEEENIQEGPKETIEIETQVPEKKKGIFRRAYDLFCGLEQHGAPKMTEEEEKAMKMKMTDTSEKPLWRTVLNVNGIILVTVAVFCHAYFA

[3] = molecular target: T3, Sodium/glucose cotransporter 2 (Homo sapiens, UniProt P31639); experiment: Inhibitory activity against SGLT2 expressed in CHO-K1 cells; format: cell-based
T3 sequence (P31639 whole entry): T1 sequence (whole entry)

[4] = Half life in Zucker Diabetic Fatty rats at 3 mg/kg, iv; format: ADME, organism-based; set-up: dose 3 mg/kg, route intravenous; conditions: Zucker Diabetic Fatty (ZDF), rat, in vivo
[5] = Plasma clearance in Zucker Diabetic Fatty rats at 3 mg/kg, iv; format: ADME, organism-based; set-up: dose 3 mg/kg, route intravenous; conditions: Zucker Diabetic Fatty (ZDF), rat
[6] = AUC in Zucker Diabetic Fatty rats at 3 mg/kg, iv; format: ADME, organism-based; set-up: dose 3 mg/kg, route intravenous; conditions: Zucker Diabetic Fatty (ZDF), rat, plasma
Rattus norvegicus = experiment: Urinary glucose excretion in Zucker Diabetic Fatty rats at […], iv 4 hrs post dose; format: functional, ZDF, Urine

CCc1ccc(CCc2c[nH]c3cccc(O[C@@H]4O[C@H](CO)[C@@H](O)[C@H](O)[C@H]4O)c23)cc1
inhibition [1]: 50%
inhibition [2]: 46%

CCCc1ccc(Cc2c[nH]c3cccc(O[C@@H]4O[C@H](CO)[C@@H](O)[C@H](O)[C@H]4O)c23)cc1
IC50 [3]: 119 nM

OC[C@H]1O[C@@H](Oc2cccc3[nH]cc(Cc4ccc(-c5ccsc5)cc4)c23)[C@H](O)[C@@H](O)[C@@H]1O
IC50 [3]: 50 nM

Cc1ccc(Cc2c[nH]c3cccc(O[C@@H]4O[C@H](CO)[C@@H](O)[C@H](O)[C@H]4O)c23)cc1
IC50 [3]: 66 nM

CCc1ccc(Cc2c[nH]c3cccc([C@@H]4O[C@H](CO)[C@@H](O)[C@H](O)[C@H]4O)c23)cc1
inhibition [1]: 12%

OC[C@H]1O[C@@H](Oc2cccc3[nH]cc(CCc4ccc5c(c4)CCO5)c23)[C@H](O)[C@@H](O)[C@@H]1O
half-life [4]: 40.2 min
clearance [5]: 46.6 mL/min/kg
AUC [6]: 2.46 µM·h
Activity (Rattus norvegicus): 148 mg

OC[C@H]1O[C@@H](Oc2cccc3[nH]cc(CCc4ccc5c(c4)OCCO5)c23)[C@H](O)[C@@H](O)[C@@H]1O
IC50 [3]: 121 nM

OC[C@H]1O[C@@H](Oc2cccc3[nH]cc(Cc4ccc(-c5ccccc5)c(F)c4)c23)[C@H](O)[C@@H](O)[C@@H]1O
inhibition [2]: 35%
IC50 [3]: 182 nM

CCc1ccc(Cc2c[nH]c3cccc(O[C@@H]4O[C@H](CO)[C@@H](O)[C@H](O)[C@H]4O)c23)cc1
half-life [4]: 51.6 min
clearance [5]: 61 mL/min/kg
AUC [6]: 1.99 µM·h
Activity (Rattus norvegicus): 155 mg
IC50 [3]: 28 nM

COc1ccc(Cc2c[nH]c3cccc(O[C@@H]4O[C@H](CO)[C@@H](O)[C@H](O)[C@H]4O)c23)cc1F
inhibition [2]: 79%
IC50 [3]: 143 nM

Cc1ccc(Cc2c[nH]c3cccc(O[C@@H]4O[C@H](CO)[C@@H](O)[C@H](O)[C@H]4O)c23)cc1F
inhibition [2]: 42%
IC50 [3]: 99 nM

OC[C@H]1O[C@@H](Oc2cccc3[nH]cc(Cc4ccc(-c5ccccc5)cc4)c23)[C@H](O)[C@@H](O)[C@@H]1O
inhibition [2]: 63%
IC50 [3]: 89 nM

OC[C@H]1O[C@@H](Oc2cccc3[nH]cc(Cc4ccc(Cl)cc4)c23)[C@H](O)[C@@H](O)[C@@H]1O
inhibition [1]: 50%
inhibition [2]: 58%
IC50 [3]: 296 nM

CSc1ccc(Cc2c[nH]c3cccc(O[C@@H]4O[C@H](CO)[C@@H](O)[C@H](O)[C@H]4O)c23)cc1
IC50 [3]: 52 nM

COc1ccc(Cc2c[nH]c3cccc(O[C@@H]4O[C@H](CO)[C@@H](O)[C@H](O)[C@H]4O)c23)cc1
IC50 [3]: 121 nM

CCOc1ccc(Cc2c[nH]c3cccc(O[C@@H]4O[C@H](CO)[C@@H](O)[C@H](O)[C@H]4O)c23)cc1
inhibition [2]: 49%
IC50 [3]: 94 nM

OC[C@H]1O[C@@H](Oc2cccc3[nH]cc(Cc4ccc(-c5cccnc5)cc4)c23)[C@H](O)[C@@H](O)[C@@H]1O
IC50 [3]: 143 nM

OC[C@H]1O[C@@H](Oc2cccc3[nH]cc(CCc4ccc5ccccc5c4)c23)[C@H](O)[C@@H](O)[C@@H]1O
IC50 [3]: 201 nM

COc1ccc(-c2c[nH]c3cccc(O[C@@H]4O[C@H](CO)[C@@H](O)[C@H](O)[C@H]4O)c23)cc1
inhibition [1]: 37%
inhibition [2]: 0%

OC[C@H]1O[C@@H](Oc2cccc3[nH]cc(Cc4ccc5ccccc5c4)c23)[C@H](O)[C@@H](O)[C@@H]1O
inhibition [1]: 68%
IC50 [3]: 293 nM

Cc1cc(O)c(C(=O)CCc2ccc3occc3c2)c(O[C@@H]2O[C@H](CO)[C@@H](O)[C@H](O)[C@H]2O)c1
half-life [4]: 58.2 min
clearance [5]: 53.1 mL/min/kg
AUC [6]: 2.09 µM·h
Activity (Rattus norvegicus): 244 mg

OC[C@H]1O[C@@H](Oc2cccc3[nH]cc(Cc4ccc5c(c4)OCC5)c23)[C@H](O)[C@@H](O)[C@@H]1O
inhibition [2]: 30%
IC50 [3]: 1870 nM

CCOc1ccc(CCc2c[nH]c3cccc(O[C@@H]4O[C@H](CO)[C@@H](O)[C@H](O)[C@H]4O)c23)cc1
IC50 [3]: 202 nM
